The supplement of paper PMC11061612

How the values were obtained:
Assay in all cases: Bliss excess, mean over the matrix (fraction); higher = more synergy
[1] = tested on: 8505C (Thyroid Gland Carcinoma)
Summary of the method: (§1)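 After 24 hours at 37°C and 5% CO2 in 1536-well plates, cells in DMEM/F12 or RPMI plus 10% FBS received two-drug dose matrices for 72 hours. Viability came from CellTiter-Glo 2.0 luminescence and was scaled as inhibition, anchored at 0 by vehicle wells and at 1 by blank wells. Combination Emax is taken as the second-highest inhibition in the matrix, and Bliss excess as the observed combination effect less EA + EB − EA·EB, with EA and EB the single-agent effects.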

[2] = tested on: COR-L279 (Small Cell Lung Carcinoma)
Summary of the method: as §1

[3] = tested on: CW-2 (Colorectal Carcinoma)
Summary of the method: as §1

[4] = tested on: DAN-G (Pancreatic Carcinoma)
Summary of the method: as §1

[5] = tested on: HCC1419 (Breast Carcinoma)
Summary of the method: as §1

[6] = tested on: KMS-12-BM (Plasma Cell Myeloma)
Summary of the method: as §1

[7] = tested on: KYSE-270 (Esophageal Squamous Cell Carcinoma)
Summary of the method: as §1

[8] = tested on: M059J (Glioblastoma)
Summary of the method: as §1

[9] = tested on: MOG-G-CCM (Low Grade Glioma)
Summary of the method: as §1

[10] = tested on: NCI-H520 (Squamous Cell Lung Carcinoma)
Summary of the method: as §1

[11] = tested on: NCI-H661 (Non-Small Cell Lung Carcinoma)
Summary of the method: as §1

[12] = tested on: NCI-H929 (Plasma Cell Myeloma)
Summary of the method: as §1

[13] = tested on: RD (Rhabdomyosarcoma)
Summary of the method: as §1

[14] = tested on: RPMI-8226 (Plasma Cell Myeloma)
Summary of the method: as §1

[15] = tested on: SJSA-1 (Osteosarcoma)
Summary of the method: as §1

[16] = tested on: SK-GT-2 (Gastric Carcinoma)
Summary of the method: as §1

[17] = tested on: SK-GT-4 (Esophageal Adenocarcinoma)
Summary of the method: as §1

[18] = tested on: SNU-398 (Hepatocellular Carcinoma)
Summary of the method: as §1

[19] = tested on: ST486 (Burkitt's Lymphoma)
Summary of the method: as §1

[20] = tested on: VMRC-RCZ (Kidney Carcinoma)
Summary of the method: as §1

Row | Compound | Bliss excess [1] | Bliss excess [2] | Bliss excess [3] | Bliss excess [4] | Bliss excess [5] | Bliss excess [6] | Bliss excess [7] | Bliss excess [8] | Bliss excess [9] | Bliss excess [10] | Bliss excess [11] | Bliss excess [12] | Bliss excess [13] | Bliss excess [14] | Bliss excess [15] | Bliss excess [16] | Bliss excess [17] | Bliss excess [18] | Bliss excess [19] | Bliss excess [20]
1 | CN(CCO)CC[C@H](CSc1ccccc1)Nc1ccc(S(=O)(=O)NC(=O)c2ccc(N3CCC([C@@H](O)c4ccccc4-c4ccc(Cl)cc4)CC3)cc2)cc1S(=O)(=O)C(F)(F)F [AZD4320] + C=CCn1c(=O)c2cnc(Nc3ccc(N4CCN(C)CC4)cc3)nc2n1-c1cccc(C(C)(C)O)n1 [AZD1775] (first compound max 1 µM, partner max 1 µM) | 0.0033 | 0.0798 | 0.0032 | 0.0078 | -0.0722 | 0.0716 | 0.0126 | 0.0448 | 0.0069 | -0.0444 | -0.0018 | -0.0219 | 0.0669 | 0.0467 | -0.0545 | 0.0322 | -0.0438 | -0.0291 | -0.0447 | -0.0418
2 | CN(CCO)CC[C@H](CSc1ccccc1)Nc1ccc(S(=O)(=O)NC(=O)c2ccc(N3CCC([C@@H](O)c4ccccc4-c4ccc(Cl)cc4)CC3)cc2)cc1S(=O)(=O)C(F)(F)F [AZD4320] + CCN(CCO)CCCOc1ccc2c(Nc3cc(CC(=O)Nc4cccc(F)c4)[nH]n3)ncnc2c1 [AZD2811] (first compound max 1 µM, 7x7, partner max 1 µM) | 0.0545 | 0.051 | -0.0073 | 0.0038 | -0.0664 | 0.0816 | -0.0072 | -0.004 | 0.0683 | 0.0077 | -0.0322 | -0.0119 | 0.0335 | 0.0003 | -0.0059 | 0.026 | -0.0425 | -0.0135 | -0.0097 | -0.0508
3 | CN(CCO)CC[C@H](CSc1ccccc1)Nc1ccc(S(=O)(=O)NC(=O)c2ccc(N3CCC([C@@H](O)c4ccccc4-c4ccc(Cl)cc4)CC3)cc2)cc1S(=O)(=O)C(F)(F)F [AZD4320] + CN(C)CCCOc1ccc(-c2ccc3ncc4c(c3c2)n(C2CCOCC2)c(=O)n4C)cn1 [AZD0156] (first compound max 1 µM, 7x7, partner max 1 µM) | -0.0014 | 0.0041 | -0.007 | -0.0031 | -0.0645 | 0.0211 | -0.0152 | 0.0015 | -0.0155 | -0.0185 | -0.0232 | -0.0267 | -0.0172 | 0.0137 | 0.0377 | 0.0006 | -0.067 | -0.0009 | -0.0086 | -0.058
4 | CN(CCO)CC[C@H](CSc1ccccc1)Nc1ccc(S(=O)(=O)NC(=O)c2ccc(N3CCC([C@@H](O)c4ccccc4-c4ccc(Cl)cc4)CC3)cc2)cc1S(=O)(=O)C(F)(F)F [AZD4320] + C[C@@H](Nc1cc(F)cc(F)c1)c1cc(C(=O)N(C)C)cc2c(=O)cc(N3CCOCC3)oc12 [AZD8186] (first compound max 1 µM, 7x7, partner max 3 µM) | 0.0411 | 0.0217 | -0.0073 | 0.0484 | 0.0282 | 0.0652 | 0.0225 | 0.0316 | -0.018 | 0.0618 | 0.0424 | -0.0036 | 0.0328 | 0.0151 | -0.0489 | 0.0296 | -0.0206 | 0.0201 | 0.0176 | -0.0096
5 | CN(CCO)CC[C@H](CSc1ccccc1)Nc1ccc(S(=O)(=O)NC(=O)c2ccc(N3CCC([C@@H](O)c4ccccc4-c4ccc(Cl)cc4)CC3)cc2)cc1S(=O)(=O)C(F)(F)F [AZD4320] + Cc1cc2ncnn2cc1Nc1ncc2c(n1)n(C1CCOCC1)c(=O)n2C [AZD7648] (first compound max 1 µM, 7x7, partner max 10 µM) | -0.0315 | -0.0057 | -0.006 | -0.0484 | -0.133 | 0.0317 | -0.0197 | -0.0258 | -0.0387 | -0.0691 | -0.0289 | 0.0134 | -0.0189 | 0.0536 | -0.0406 | -0.0034 | -0.0413 | -0.0291 | -0.0066 | -0.058
6 | CN(CCO)CC[C@H](CSc1ccccc1)Nc1ccc(S(=O)(=O)NC(=O)c2ccc(N3CCC([C@@H](O)c4ccccc4-c4ccc(Cl)cc4)CC3)cc2)cc1S(=O)(=O)C(F)(F)F [AZD4320] + Cn1cnc2c(F)c(Nc3ccc(Br)cc3Cl)c(C(=O)NOCCO)cc21 [Selumetinib] (first compound max 1 µM, 7x7, partner max 3 µM) | 0.0641 | -0.0029 | 0.0454 | 0.04 | -0.0211 | -0.024 | 0.0148 | -0.0289 | -0.136 | -0.0205 | 0.0414 | 0.0597 | 0.0308 | 0.0202 | 0.0413 | 0.0177 | 0.0128 | 0.0783 | 0.0086 | -0.0195
7 | COc1nnc2ccc(N3CCC(c4ccc(OCCN5CCN(C)C(=O)[C@H]5C)cc4)CC3)nn12 [AZD5153] + C=CCn1c(=O)c2cnc(Nc3ccc(N4CCN(C)CC4)cc3)nc2n1-c1cccc(C(C)(C)O)n1 [AZD1775] (first compound max 1 µM, partner max 1 µM) | 0.0074 | -0.0192 | 0.0072 | -0.0496 | -0.0724 | -0.0243 | -0.067 | -0.106 | -0.0646 | -0.0115 | -0.019 | -0.0551 | -0.0171 | -0.0059 | -0.0313 | -0.0008 | -0.0369 | -0.0315 | -0.0492 | -0.0287
8 | COc1nnc2ccc(N3CCC(c4ccc(OCCN5CCN(C)C(=O)[C@H]5C)cc4)CC3)nn12 [AZD5153] + CC1(C)CCC(CN2CCN(c3ccc(C(=O)NS(=O)(=O)c4ccc(NCC5CCOCC5)c([N+](=O)[O-])c4)c(Oc4cnc5[nH]ccc5c4)c3)CC2)=C(c2ccc(Cl)cc2)C1 [Venetoclax] (first compound max 1 µM, 7x7, partner max 1 µM) | -0.07 | -0.0945 | -0.0642 | -0.0437 | -0.0499 | 0.0033 | -0.0185 | -0.0124 | -0.0471 | -0.0179 | -0.0574 | 0.0001 | -0.041 | -0.0035 | -0.0481 | -0.028 | -0.0444 | -0.126 | -0.0493 | -0.0224
9 | COc1nnc2ccc(N3CCC(c4ccc(OCCN5CCN(C)C(=O)[C@H]5C)cc4)CC3)nn12 [AZD5153] + CCN(CCO)CCCOc1ccc2c(Nc3cc(CC(=O)Nc4cccc(F)c4)[nH]n3)ncnc2c1 [AZD2811] (first compound max 1 µM, 7x7, partner max 1 µM) | 0.03 | -0.0201 | -0.0525 | -0.0611 | -0.0414 | 0.0641 | -0.054 | -0.0225 | -0.052 | 0.0242 | -0.0318 | -0.0026 | 0.0001 | -0.0116 | -0.0335 | -0.0314 | -0.0421 | -0.0495 | -0.0647 | -0.0259
10 | COc1nnc2ccc(N3CCC(c4ccc(OCCN5CCN(C)C(=O)[C@H]5C)cc4)CC3)nn12 [AZD5153] + C[C@@H]1COCCN1C2=NC(=NC(=C2)C3(CC3)[S@](=N)(=O)C)C4=C5C=CNC5=NC=C4 [AZD6738] (first compound max 1 µM, 7x7, partner max 10 µM) | 0.0751 | -0.0233 | 0.0277 | 0.0374 | -0.0517 | -0.0167 | -0.0544 | -0.0647 | -0.0378 | 0.07 | 0.0929 | -0.0817 | 0 | -0.0505 | -0.0398 | 0.0773 | -0.0252 | 0.0758 | -0.0692 | 0.0926
11 | COc1nnc2ccc(N3CCC(c4ccc(OCCN5CCN(C)C(=O)[C@H]5C)cc4)CC3)nn12 [AZD5153] + Cc1c2c(nn1C)CSCc1cc(n(C)n1)CSc1cc(c3ccccc3c1)OCCCc1c(C(=O)O)n(C)c3c-2c(Cl)ccc13 [AZD5991] (first compound max 1 µM, 7x7, partner max 1 µM) | -0.0393 | 0.08 | -0.0629 | -0.0163 | -0.0411 | -0.0116 | 0.0085 | -0.0072 | 0.0248 | -0.0174 | 0.031 | -0.0142 | 0.0267 | -0.0253 | -0.0673 | 0.0224 | -0.0304 | -0.0431 | -0.0275 | -0.022
12 | COc1nnc2ccc(N3CCC(c4ccc(OCCN5CCN(C)C(=O)[C@H]5C)cc4)CC3)nn12 [AZD5153] + Cn1cnc2c(F)c(Nc3ccc(Br)cc3Cl)c(C(=O)NOCCO)cc21 [Selumetinib] (first compound max 1 µM, 7x7, partner max 10 µM) | 0.0049 | -0.0778 | 0.0215 | -0.0368 | 0.0238 | -0.0114 | 0.0576 | -0.0635 | -0.0198 | 0.0319 | -0.0027 | -0.0068 | 0.0333 | 0.0745 | -0.0377 | 0.0006 | -0.0158 | -0.0298 | 0.031 | -0.0486
13 | Cc1c2c(nn1C)CSCc1cc(n(C)n1)CSc1cc(c3ccccc3c1)OCCCc1c(C(=O)O)n(C)c3c-2c(Cl)ccc13 [AZD5991] + C=CCn1c(=O)c2cnc(Nc3ccc(N4CCN(C)CC4)cc3)nc2n1-c1cccc(C(C)(C)O)n1 [AZD1775] (first compound max 1 µM, partner max 1 µM) | 0.0256 | -0.0632 | 0.04 | 0.0424 | -0.106 | -0.0082 | 0.013 | -0.0191 | -0.0287 | 0.0221 | 0.0429 | 0.0023 | 0.04 | -0.0006 | 0.0115 | -0.0033 | -0.0617 | 0.0149 | -0.0067 | 0.0212
